Drawing on US20110142961A1, “METHODS AND REAGENTS FOR PREDICTING CLINICAL OUTCOME AND CUSTOMIZING CHEMOTHERAPY IN LUNG CANCER PATIENTS” (Pangaea Biotech S.A., priority 2008, published 2011), this text covers median survival for four compounds.

The test relates to metastatic NSCLC (patients with lung adenocarcinoma or large-cell carcinoma). As to the kind of experiment: Customized treatment of metastatic NSCLC according to EGFR mutations and BRCA1 mRNA levels: survival. In kind it is in vivo. As to conditions: median follow-up of 10 months. The procedure: Background: A study was carried out wherein treatment of metastatic NSCLC was customized according to the presence of EGFR mutations and BRCA1 mRNA levels.
Methods: 93 patients with lung adenocarcinoma or large-cell carcinoma were screened for EGFR Δ746-750 deletion and L858R mutation and BRCA1 mRNA expression. 15 patients with the L858R mutation in the EGFR gene received erlotinib; 78 patients without the L858R mutation in the EGFR gene received chemotherapy according to BRCA1 levels (low: gemcitabine/cisplatin; intermediate: docetaxel/cisplatin; high: docetaxel alone). In addition, Abraxas and RAP80 mRNA expression were examined in 60/78 patients without the L858R mutation. The features of the patients are collected in Tables I and II.

With `CC(=O)O[C@@]12CO[C@@H]1C[C@H](O)[C@@]1(C)C(=O)[C@H](O)C3=C(C)[C@@H](OC(=O)[C@H](O)[C@@H](NC(=O)OC(C)(C)C)c4ccccc4)C[C@@](O)([C@@H](OC(=O)c4ccccc4)[C@H]21)C3(C)C` [docetaxel], the median survival (12 patients with high BRCA1 levels (received docetaxel alone)) came out at 11 months.

gemcitabine/cisplatin: the median survival entry (32 patients with low BRCA1 levels (received gemcitabine/cisplatin)) is listed as “not reached”.

Regarding `C#Cc1cccc(Nc2ncnc3cc(OCCOC)c(OCCOC)cc23)c1` [erlotinib], for the setting “11 patients with EGFR mutations (received erlotinib)”, the median survival result is given as “not reached”.

Where the note is “34 patients with intermediate BRCA1 levels (received docetaxel/cisplatin)”, docetaxel/cisplatin yielded a median survival of 9 months.
